“And” between values parts separate entries of the source, which are not always exact repeats. Equal entries are not always repeated.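 Where inhibition never reached the appropriate level, the endpoint shown equals the highest concentration tested. Otherwise, values were interpolated linearly from a five-concentration, 48-hour dose response in 96-well plates. GI50 = concentration required for 50% inhibition of growth. At the TGI there is no net growth.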

This is an account of results in PubChem BioAssay (NCI).

Holding throughout (test): inhibition of tumour cell growth, NCI panel, 48 h
The subject of test [1] is SK-MEL-5 melanoma.
In test [2] the test system is HL-60(TB) leukemia.
Test [3] deals with MDA-N.
The subject of test [4] is SF-539 CNS.
Test [5] deals with MDA-MB-231 breast.
The subject of test [6] is OVCAR-4 ovarian.
Test [7] deals with ACHN renal.
The subject of test [8] is CAKI-1 renal.
Test [9] has as its system 786-0 renal.
Test [10] concerns NCI/ADR-RES ovarian.
The test system of test [11] is MOLT-4 leukemia.
The test system of test [12] is NCI-H460 lung.

As for `CC[C@]12C=CCN3CC[C@@]4(c5cc(Br)c(OC)cc5N(C)[C@H]4[C@@](O)(C(=O)NC(Cc4c[nH]c5ccccc45)C(=O)OC)[C@@H]1O)[C@@H]32` (some centres not stated), the TGI in [1] was 75.8 µM; in [2] it was 91.3 µM; in [3], above 100 µM; in test [4] it was above 100 µM; in test [5], above 100 µM; in test [6] it was above 100 µM. Besides, the TGI in [7], in [8], in test [9], in [10] and in test [11] was above 100 µM in each case.

For `C=C(C)CCC1C=[N+]([O-])OC(C)(C)C1(C)C` (configuration not stated), the TGI is above 100 µM in test [1]; 73.8 µM in test [2]; above 100 µM in test [3]; above 100 µM in test [12]; above 100 µM in test [4]; above 100 µM in [5]. Moreover, the TGI in test [7], in [8], in test [9], in test [10] and in [11] was above 100 µM each time.

As for `COc1ccc(-c2oc3cc(O)c(OC)c(O)c3c(=O)c2O)cc1`, the TGI in test [1] is 34 µM; in [2], 9.19 µM; in test [3] it was above 100 µM; in [12], 26.4 µM; in test [4], 41.6 µM; in [5] it was above 100 µM. Further, the TGI in test [6] is above 100 µM; in test [7], 10.7 µM; in [8] it was 65.3 µM; in [9], 33.1 µM; in [10] it was 48.5 µM; in [11], 12.9 µM.

Take `CSc1ccc2c(c1)c(CCN)c(C)n2Cc1ccccc1Cl`: the TGI in test [1] was 3.11 µM; in test [2] it was 3.2 µM; in [3], 3.11 µM; in test [12], 3.02 µM; in test [4], 2.26 µM; in test [5], 3.66 µM. In addition, the TGI is 3.29 µM in test [6]; 3.06 µM in [7]; 4.1 µM in [8]; 3.42 µM in test [9]; 4.77 µM in [10].

With `CC(=O)NC(C)(C)C1CCC(C)CC1` (configuration not stated), the TGI in test [1], in test [2], in [3], in test [12], in test [4] and in test [5] was above 100 µM each time. Also, the TGI in test [6], in [7], in test [8], in test [9], in [10] and in test [11] was above 100 µM each time.

In the case of `O=c1c2c3c(sc2nc2n1NC=NN2)CCCC3`, the TGI in test [1] came out at 31.7 µM; in test [2], 7.34 µM; in [3] it was 30.9 µM; in [12], 38.3 µM; in test [4] it was 36.9 µM; in test [5], 19.1 µM. The TGI in test [6] turned out to be 34.1 µM; in test [7], 30.3 µM; in test [8], 33.8 µM; in test [9], 31.9 µM; in test [10] it was 65.5 µM; in test [11], 31.7 µM.

In the case of `CCOC(=O)NN(C(=O)OCC)C(C(=O)c1ccccc1)N(NC(=O)OCC)C(=O)OCC`, the TGI in test [1], in test [2], in [3], in test [12], in [4] and in test [5] was above 100 µM each time. The TGI in [6], in test [7], in test [8], in test [9], in test [10] and in [11] was above 100 µM throughout.

For `NC1=Nc2ccccc2Sc2cccc(F)c21`, the TGI in test [1] was above 100 µM; in [2] it was 88 µM; in test [3], above 100 µM; in test [12], above 100 µM; in test [4], above 100 µM; in [5], above 100 µM. Further, the TGI in [6], in [7], in test [8], in [9], in [10] and in test [11] was above 100 µM each time.

Consider `Nc1ccn(C2CCC(COP(=O)(O)OCC(O)COP(=O)(O)OCC3OC(n4cc(F)c(=O)[nH]c4=O)CC3O)O2)c(=O)n1` (configuration not stated), for which the TGI in [1] is above 21 µM; in [2] it was above 100 µM; in test [3], above 100 µM; in test [12], above 100 µM; in test [4] it was above 100 µM; in test [5] it was above 100 µM. Moreover, the TGI in [6], in test [7], in [8], in test [9], in test [10] and in [11] was above 100 µM each time.

With `N#CC1=C(N)N(/N=C/c2ccco2)C(c2ccco2)C1(C#N)C#N` (configuration not stated), the TGI in test [1] was found to be 29.3 µM; in test [2], 7.69 µM; in test [3], 37.4 µM; in test [4], 48.9 µM; in test [5] it was 38.6 µM; in test [6] it was 32.5 µM. Further, the TGI in test [7] was 30.2 µM; in test [8], 37.9 µM; in test [9] it was 33.1 µM; in test [10] it was 61.2 µM; in [11], 30.3 µM.

In the case of `CSc1nc(NCc2ccccc2)c2cnn(COCCO)c2n1`, the TGI in [1], in [2], in [3], in test [12], in [4] and in test [5] was above 100 µM throughout. The TGI in test [6] was above 100 µM; in test [7], 62.1 µM; in test [8], above 100 µM; in [9] it was above 100 µM; in [10], above 100 µM; in test [11], 86.7 µM.

Turning to `CNC(=O)CNC(=O)N(C[C@@H]1CCCN1C(=O)[C@H](CC(C)C)NC(=O)OC(C)(C)C)C(C)C`, the TGI in test [1], in test [2], in test [3], in test [12], in [5] and in [6] was above 100 µM throughout. For the same compound, the TGI in test [7], in [8], in test [9], in [10] and in test [11] was above 100 µM each time.

`COC(=O)c1c2c(cc3c1CC1(Cc4ccccc4C1)C3)CCC2`: the TGI in test [1] is 31.7 µM; in [2], 69.5 µM; in test [3], 33.9 µM; in test [12], above 100 µM; in [4] it was above 100 µM; in test [5], 44.9 µM. For the same compound, the TGI was above 100 µM in test [6]; 86.8 µM in test [7]; 78.2 µM in test [8]; above 100 µM in [9]; 96.1 µM in test [10]; 40.2 µM in test [11].

On to `Cc1ccnc(Nc2[nH]c(C(=O)c3ccc(Cl)cc3)c(N)c2C(=S)Nc2ccccc2)c1`, for which the TGI was determined as 64.6 µM in test [2]; 47.9 µM in test [3]; 27.3 µM in [12]; 26.6 µM in test [4]; 31.6 µM in test [5]; 29.4 µM in [6]. The TGI in [7] was 55.8 µM; in [8] it was above 100 µM; in [9], 34.8 µM; in [10] it was 11.1 µM; in test [11], 48.5 µM.

For the compound `CC(NNC(=O)c1ccncc1)c1cccc(C(F)(F)F)c1` (configuration not stated), the TGI in test [1], in [2], in [3], in test [12], in test [4] and in test [5] was above 100 µM in each case. Also, the TGI in [6], in test [7], in test [8], in test [9], in [10] and in test [11] was above 100 µM in each case.

Regarding `CC1CN(CCO)CCN1c1ccccc1` (configuration not stated), the TGI in test [1] is above 100 µM; in test [2] it was 99 µM; in test [3], above 100 µM; in test [12] it was above 100 µM; in [4], above 100 µM; in test [5], above 100 µM. Also, the TGI in [6], in [7], in test [8], in test [9], in test [10] and in test [11] was above 100 µM throughout.

Consider `COc1ccc([I+]c2ccc(OC)cc2)cc1`, for which the GI50 in test [1] was 1.8 µM; in test [2] it was 6.4 µM; in test [12], 5.28 µM; in test [4], 11 µM; in test [6], 3.33 µM; in test [8] it was above 85.3 µM. In addition, in test [11], the GI50 was 55.4 µM. Besides, the TGI in test [1] was 20.7 µM and 6.76 µM; in [2], above 100 µM; in [3] it was above 38.3 µM; in test [12], above 100 µM; in test [4], above 100 µM; in test [5] it was above 100 µM. In addition, the TGI in test [6], in test [7], in test [8], in test [9], in [10] and in [11] was above 100 µM in each case.

For the compound `COC(=O)C12Oc3ccc(-c4ccc5c(c4O)C(O)=C4C(=O)CC(C)C(O)C4(C(=O)OC)O5)c(O)c3C(O)=C1C(=O)CC(C)C2O` (configuration not stated), the TGI in test [1] is 0.147 µM; in [2], 0.319 µM; in [3], above 100 µM; in test [12], above 100 µM; in test [4], 1.35 µM; in [5], 6.8 µM. For the same compound, the TGI in [6] is above 100 µM; in [7], above 32.1 µM; in test [8], 4.54 µM; in test [9], above 32.2 µM; in [10] it was above 100 µM; in [11], 2.9 µM.

Turning to `C(=C/c1nnnn1-c1ccccc1)/Nc1ccccc1`, the TGI in test [1] is 27.7 µM; in [2] it was above 100 µM; in [3], 70.4 µM; in test [12] it was above 100 µM; in test [4] it was 64.7 µM; in test [5] it was above 100 µM. In addition, the TGI in test [7] is above 100 µM; in test [8] it was above 100 µM; in test [9] it was above 100 µM; in test [10], 80.2 µM; in test [11], above 100 µM.

For the compound `C=CCOC(=O)Cn1ccc(=O)[nH]c1=O`, the TGI in [1], in [2], in [3], in [12], in test [4] and in test [5] was above 100 µM throughout. Further, the TGI in test [7], in [8], in test [9], in [10] and in [11] was above 100 µM each time.

With `CCCCCCCCCCCCOC1C(COCCN2CCCCC2)OC2OC(C)(C)OC21` (configuration not stated), the TGI in test [1] was found to be 2.93 µM; in [2], 3.02 µM; in [3], 2.9 µM; in test [12], 3.48 µM; in test [4], 3.18 µM; in test [5], 3.43 µM. Besides, the TGI in test [7] was 4.69 µM; in [8], 3.28 µM; in test [9] it was 3.11 µM; in test [10], 14.4 µM; in test [11], 3.74 µM.

For `O=C1CN(c2cccc(C(F)(F)F)c2)C(=O)CN1CCN1CC(=O)N(c2cccc(C(F)(F)F)c2)CC1=O`, the TGI in test [1], in test [2], in [3], in test [12], in [4] and in [5] was above 100 µM throughout. Also, the TGI in [6], in test [7], in test [9], in test [10] and in test [11] was above 100 µM each time.

For the compound `Cc1nc2ccc(NC3OCC(O)C(O)C3O)cc2c(=O)n1-c1ccccc1` (configuration not stated), the TGI in test [1], in test [2], in [3], in test [12], in [5] and in test [6] was above 100 µM throughout. For the same compound, the TGI in [7], in [8], in test [9], in test [10] and in test [11] was above 100 µM throughout.
